From US20060079490A1, “Method of treatment of type I diabetes” (priority 2001, published 2006)
Like-named read-outs stand apart in the source and are kept apart here.

Assays:
[1] = mouse, in vivo
Protocol: (§1) Mice were weaned at 21 days and placed on the appropriate diets. Injections and experimental diets were administered every 48 hours. Control diets were fed 3 times/week. Every 10 days beginning at day 30 and ending on day 170, mice were weighed and bled for serum calcium determination. Beginning on day 70, mice were tested for glucosuria 3 times/week. If a mouse tested positive, it was fasted for 4 hours and bled to measure serum glucose levels. If the fasting serum glucose level was greater than 300 mg%, the mouse was considered diabetic. All mice remaining at 200 days were sacrificed.

female NOD/LtJ mice [2] = assay: Injection vs. Dietary Study: diabetic incidence at day 200; type: in vivo, mouse; details: injection of 50 μg/day (so in the source)
[3] = Serum calcium and hypercalcemia in NOD mice given dietary 1,25(OH)2D3 (study A); type: in vivo, mouse; details: for serum calcium: 50 ng each day
Source text: Non-Obese Diabetic (NOD/LtJ) mice were purchased from The Jackson laboratory (Bar Harbor, Me. 04609). Mice were maintained on highly purified vitamin D-deficient diet containing 0.47% calcium and 0.3% phosphorus supplemented with vitamins A, E, and K. This diet was solidified by the addition of molten agar to a powdered diet. To obtain vitamin D-deficiency in the offspring, pregnant mothers were maintained on the vitamin D-deficient diet. Then, offspring, once weaned, were further maintained on the vitamin D-deficient diet. […] Animals were bled from the extraorbital sinus with a glass pipette after a four hour fast at 2 pm once a week.
Blood was immediately centrifuged to obtain serum. Serum was diluted in 0.1% lanthanum chloride, and serum calcium was measured by atomic absorption using a Perkin-Elmer model 3110 atomic absorption spectrometer.

NOD mice = details: cited from earlier work; for total diabetes incidence at 200 days: control 86%
[4] = tested on: Non-Obese Diabetic (NOD/LtJ) mice; assay: Diabetes incidence (serum glucose >300 mg/dL) in vitamin D-deficient NOD mice given 1,25(OH)2D3 in the diet; type: in vivo, mouse; details: for incidence of diabetes: 50 ng/mouse/day in diet from weaning, at termination of experiment
Source text: Non-Obese Diabetic (NOD/LtJ) mice were purchased from The Jackson laboratory (Bar Harbor, Me. 04609). Mice were maintained on highly purified vitamin D-deficient diet containing 0.47% calcium and 0.3% phosphorus supplemented with vitamins A, E, and K. This diet was solidified by the addition of molten agar to a powdered diet. To obtain vitamin D-deficiency in the offspring, pregnant mothers were maintained on the vitamin D-deficient diet. Then, offspring, once weaned, were further maintained on the vitamin D-deficient diet. […] Treatment with 1,25(OH)2D3 was started at weaning. Animals were bled from the extraorbital sinus with a glass pipette after a four hour fast at 2 pm once a week. Serum glucose was determined using the Trinder glucose oxidase enzyme assay kit purchased from Sigma (St. Louis, Mo.). 5 μL of NOD serum was used as an unknown and analyzed spectrophotometrically at 505 nm against a known glucose standard (Sigma, St. Louis, Mo.). An animal was considered diabetic if its serum glucose was greater than 300 mg/dL.

female NOD/LtJ mice [5] = assay: Injection vs. Dietary Study: diabetic incidence at day 200; type: in vivo, mouse
Protocol: NOD/LtJ mice were fed control diets (purified Diet 11 as described in Suda, et al., J. Nutr. 100:1049-1052 1970, 0.47% calcium +vitamins A, D, E and K) or experimental diets (control +10, 25 or 50 ng of 1,25D3/mouse/day).
Control (vehicle) animals were injected with 50 μL sterile peanut oil while the experimental animals were injected with 5 μg/kg 1,25D3/mouse/2 days in sterile peanut oil.
as §1

NOD/LtJ mice = assay: Diabetes incidence by 200 days with 1,25(OH)2D3 diet started at weaning, 8 weeks or 100 days (study C); type: in vivo, mouse
Protocol: Animals: Mice from an in-house breeding colony of NOD/LtJ mice (Jackson Laboratory) were used for this study. Female mice were randomly weaned into each dietary group. 24 mice were used per group.
Diet Preparation: Experimental purified diets were prepared containing 0.47% calcium supplemented with 25 IU vitamin D3 (Diet 11). […] All purified powder diets were solidified by mixing with molten agar to ensure animals consumed the exact dose of 1,25(OH)2D3. Each mouse was administered 3.5 grams of powder diet per day.
Diet Administration: Experimental purified diets were administered beginning at weaning (3 weeks of age) until 200 days of age. 1,25(OH)2D3-containing diet was administered beginning at weaning (group 2), beginning at 8 weeks of age (group 3), or beginning at 100 days of age (group 4).
Serum glucose determination: Serum glucose was measured using an enzymatic colorimetric assay (Glucose liquicolor, Stanbio, Boerne, Tex.).
Disease analysis: Urine samples were obtained twice weekly from animals older than 70 days of age and tested for urinary glucose using Diastix (Bayer, Elkhart, Ind.). Serum glucose was measured from animals with urine glucose readings >250 mg/dL. Animals with multiple serum glucose values >300 mg/dL at least 24 hours apart were considered diabetic and sacrificed via CO2 asphyxiation. All remaining animals were sacrificed at 200 days of age.

[6] = administered from 100 to 200 days of age

SMILES: C=C1/C(=C\C=C2/CCC[C@]3(C)[C@@H]([C@H](C)CCCC(C)(C)O)CC[C@@H]23)C[C@@H](O)C[C@@H]1O [1,25(OH)2D3, 1α,25-dihydroxyvitamin D3]
- hypercalcemia [1]: clearly caused hypercalcemia
- effect of injection on incidence of diabetes (female NOD/LtJ mice [2]): increased rather than decreased the incidence of diabetes
- serum calcium levels (evidence of hypercalcemia) ([3]; 200 ng group): ≥ 12 mg/dL
- serum calcium ([3]; females, at 40 days): 10.50 ± 1.53 mg/dL
- serum calcium ([3]; females, at 150 days of age): 13.10 ± 1.01 mg/dL
- number of NOD females died of hypercalcemia ([3]; females, 50 ng, by 150 days of age): 7
- serum calcium ([3]; males, at 40 days): 9.22 ± 0.93 mg/dL
- serum calcium ([3]; males, at 150 days of age): 12.78 ± 1.11 mg/dL
- diabetic incidence (NOD mice; [6]): same diabetic incidence as the control group
- onset of diabetes (NOD mice; [6]): appeared to be slightly delayed
- incidence of diabetes (NOD mice; female NOD mice, injection of 5 μg/kg, control 56%): 8%
- bone calcium (NOD mice; mouse, in vivo): reduced
- total diabetes incidence at 200 days (NOD mice; treated only until 100 days of age): about 35%
- total diabetes incidence at 200 days (NOD mice; treated until 200 days of age): 13%
- serum glucose values ([4]; 200 ng group, at any time): ≤ 300 mg/dL
- incidence of diabetes ([4]; female NOD mice): 7.69%
- incidence of diabetes ([4]; male NOD mice): 7.14%
- db %= (female NOD/LtJ mice [5]; 10 ng diet, day 200): 11%
- db n= (female NOD/LtJ mice [5]; 10 ng diet, day 200, n=9): 1
- db %= (female NOD/LtJ mice [5]; 25 ng diet, day 200): 22%
- db n= (female NOD/LtJ mice [5]; 25 ng diet, day 200, n=9): 2
- db %= (female NOD/LtJ mice [5]; 50 ng diet, day 200): 25%
- db n= (female NOD/LtJ mice [5]; 50 ng diet, day 200, n=8): 2
- diabetes incidence (female NOD/LtJ mice [5]; in the diet (oral treatment), day 200): 10-25%
- db %= (female NOD/LtJ mice [5]; injected 5 μg/kg/2 days in peanut oil, day 200): 71%
- db n= (female NOD/LtJ mice [5]; injected 5 μg/kg/2 days in peanut oil, day 200, n=7): 5
- incidence of diabetes (female NOD/LtJ mice [5]; injected, day 200): over 70%
- became diabetic by 200 days of age (NOD/LtJ mice; 50 ng in diet after 100 days of age (group 4), 23 animals): 8.7%
- animals that became diabetic by 200 days of age (NOD/LtJ mice; 50 ng in diet beginning at 8 weeks of age (group 3)): 0 of 24
- became diabetic by 200 days of age (NOD/LtJ mice; 50 ng in diet from weaning (group 2), 24 mice): 4.2%
